The source of these data is US9957263B2, “Bromodomain inhibitors” (AbbVie Inc., priority 2013, dated 2018).

Test [1] concerns the target BRD4 (BDII_E352-M457) (Homo sapiens (Human), UniProt O60885). As to the kind of experiment: TR-FRET bromodomain binding assay, BRD4 second bromodomain. Conditions: His-tagged BD2, Alexa647-labeled probe 30 nM. In outline:
(§1)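 Affinity for each isolated His-tagged domain was measured as competition with a fluorescent Alexa647 BET-inhibitor probe in a TR-FRET format at pH 6.0, 1 h room temperature incubation. Ki values were calculated from fitted IC50s, probe Kd and probe level (100 nM BDI, 30 nM BDII).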
A general note: TR-FRET usually uses a lanthanide donor and a delayed reading to cut background.

Test [2] concerns breast cancer cell line MX-1. As to the kind of experiment: MX-1 cell line proliferation assay, Method B. Type of test: cell-based. Particulars: Homo sapiens, MX1; MX-1 cells, 384-well, 72 hours, Cell Titer Glo; read-out: Cellular proliferation: EC50 Method B. As to the method: The impact of compounds of the Examples on cancer cell proliferation was determined using the breast cancer cell line MX-1 (ATCC) in a 3-day proliferation assay and the data are reported in Table 1.
Method B: MX-1 cells were maintained in RPMI 1640 medium (Sigma) supplemented with 10% FBS at 37 C.° and an atmosphere of 5% CO2. For compound testing, MX-1 cells were plated in 384-well white with clear, flat bottom plates at a density of 750 cells/well in 25 μL of culture media and incubated at 370 overnight to allow cell adhesion and spreading. Ten point compound dilution series were prepared in DMSO via a 3-fold serial dilution from either […] or 1 μM stock and added directly to the appropriate wells of the MX-1 cell plate by an ECHO liquid handler (Labcyte). The final compound concentrations in the wells were 10, 3.25, 1, 0.25, 0.124, 0.040, 0.0124, 0.0031, 0.0015 and 0.0005 μM or 1, 0.33, 0.1, 0.025, 0.0124, 0.004, 0.0012, 0.0003, 0.00015, 0.00005 μM, depending on the concentration of the compound stock solution.
Luminescence readings from the Cell Titer Glo assay were normalized to the DMSO treated cells and analyzed using Accelrys Assay Explorer 3.3 software with sigmoidal curve fitting to obtain ECsos. The minimum significant ratio (MSR) was determined to evaluate assay reproducibility (Eastwood et al., (2006) J Biomol Screen, 11: 253-261). The overall MSR was determined to be 3.3 and a moving MSR (last six run MSR overtime) has averaged

Test [3] has as its target BRD4 (BDI_K57-E168) (Homo sapiens (Human), UniProt O60885). As to the kind of experiment: TR-FRET bromodomain binding assay, BRD4 first bromodomain. Conditions: His-tagged BD1, Alexa647-labeled probe 100 nM. In outline: as §1

As usually defined, the Ki is a dissociation constant, usually derived from enzyme kinetics or from competition with a known ligand. High values mean lower affinity, low ones higher affinity. `CCNC(=O)c1cc2c(-c3ccc(C(=O)N(CCCN(C)C)C4CCCCC4)cc3Oc3c(C)cccc3C)cn(C)c(=O)c2[nH]1` [Example 172, 4-[4-{cyclohexyl[3-(dimethylamino)propyl]carbamoyl}-2-(2,6-dimethylphenoxy)phenyl]-N-ethyl-6-methyl-7-oxo-6,7-dihydro-1H-pyrrolo[2,3-c]pyridine-2-carboxamide]: the Ki turned out to be 0.00666 µM in test [1] and 1 µM in test [3]. In addition, the EC50 in test [2] was 2.54 µM.

Consider `CCNC(=O)c1cc2c(-c3ccc(C(=O)N(CC#N)c4ccc(Cl)cc4)cc3Oc3c(C)cccc3C)cn(C)c(=O)c2[nH]1` [Example 169, 4-{4-[(4-chlorophenyl)(cyanomethyl)carbamoyl]-2-(2,6-dimethylphenoxy)phenyl}-N-ethyl-6-methyl-7-oxo-6,7-dihydro-1H-pyrrolo[2,3-c]pyridine-2-carboxamide], for which the results for the Ki in test [1] and in test [3] were 0.0278 µM and 1.4 µM, respectively. Also, the EC50 in test [2] was determined as 2.17 µM.

Regarding `CCNC(=O)c1cc2c(-c3ccc(C(=O)N(CCCN4CCCC4)C(C)Cc4ccccc4)cc3Oc3c(C)cccc3C)cn(C)c(=O)c2[nH]1` (stereo not drawn) [Example 165, 4-[2-(2,6-dimethylphenoxy)-4-{(1-phenylpropan-2-yl) [3-(pyrrolidin-1-yl)propyl]carbamoyl}phenyl]-N-ethyl-6-methyl-7-oxo-6,7-dihydro-1H-pyrrolo[2,3-c]pyridine-2-carboxamide], the Ki in test [1] worked out at 0.00448 µM; in test [3] it was 0.429 µM. Besides, the EC50 in test [2] worked out at 1.46 µM.

For `CCNC(=O)c1cc2c(-c3ccc(C(=O)N(CC#N)c4ccc(OC)cc4)cc3Oc3c(C)cccc3C)cn(C)c(=O)c2[nH]1` [Example 183, 4-{4-[(cyanomethyl)(4-methoxyphenyl)carbamoyl]-2-(2,6-dimethylphenoxy)phenyl}-N-ethyl-6-methyl-7-oxo-6,7-dihydro-1H-pyrrolo[2,3-c]pyridine-2-carboxamide], the values for the Ki in test [1] and in test [3] were 0.0141 µM and 2.8 µM, respectively. Besides, the EC50 in test [2] was 1.48 µM.

Consider `CCNC(=O)c1cc2c(-c3ccc(C(=O)N(CCCC(=O)OCC)c4ccccc4)cc3Oc3c(C)cccc3C)cn(C)c(=O)c2[nH]1` [Example 180, ethyl 4-[{3-(2,6-dimethylphenoxy)-4-[2-(ethylcarbamoyl)-6-methyl-7-oxo-6,7-dihydro-1H-pyrrolo[2,3-c]pyridin-4-yl]benzoyl}(phenyl)amino]butanoate], for which the values for the Ki in test [1] and in test [3] were 0.0308 µM and 8.61 µM, respectively. Moreover, the EC50 in test [2] came to 6.06 µM.

Consider `CCNC(=O)c1cc2c(-c3ccc(C(=O)N(CCN(CC)CC)c4ccccc4C)cc3Oc3c(C)cccc3C)cn(C)c(=O)c2[nH]1` [Example 170, 4-[4-{[2-(diethylamino)ethyl](2-methylphenyl)carbamoyl}-2-(2,6-dimethylphenoxy)phenyl]-N-ethyl-6-methyl-7-oxo-6,7-dihydro-1H-pyrrolo[2,3-c]pyridine-2-carboxamide], for which the Ki in test [1] worked out at 0.00422 µM; in test [3], 0.863 µM. For the same compound, the EC50 in test [2] stood at 2.17 µM.

As to `CCNC(=O)c1cc2c(-c3ccc(C(=O)N(CCN(CC)CC)c4ccccc4OC)cc3Oc3c(C)cccc3C)cn(C)c(=O)c2[nH]1` [Example 178, 4-[4-{[2-(diethylamino)ethyl](2-methoxyphenyl)carbamoyl}-2-(2,6-dimethylphenoxy)phenyl]-N-ethyl-6-methyl-7-oxo-6,7-dihydro-1H-pyrrolo[2,3-c]pyridine-2-carboxamide], the Ki in test [1] is 0.0025 µM; in test [3], 0.592 µM. Further, the EC50 in test [2] is 10 µM.

Regarding `CCNC(=O)c1cc2c(-c3ccc(C(=O)N(CCC#N)c4cccc(Cl)c4)cc3Oc3c(C)cccc3C)cn(C)c(=O)c2[nH]1` [Example 175, 4-{4-[(3-chlorophenyl)(2-cyanoethyl)carbamoyl]-2-(2,6-dimethylphenoxy)phenyl}-N-ethyl-6-methyl-7-oxo-6,7-dihydro-1H-pyrrolo[2,3-c]pyridine-2-carboxamide], the values for the Ki in test [1] and in test [3] were 0.0175 µM and 2.23 µM, respectively. In test [2], the EC50 is 2.41 µM.

On to `CCNC(=O)c1cc2c(-c3ccc(C(=O)N(c4ccccc4)C4CCCCC4)cc3Oc3c(C)cccc3C)cn(C)c(=O)c2[nH]1` [Example 186, 4-{4-[cyclohexyl(phenyl)carbamoyl]-2-(2,6-dimethylphenoxy)phenyl}-N-ethyl-6-methyl-7-oxo-6,7-dihydro-1H-pyrrolo[2,3-c]pyridine-2-carboxamide], for which the figures for the Ki in test [1] and in test [3] were 0.178 µM and more than 12.7 µM, respectively. Moreover, the EC50 in test [2] worked out at 7.65 µM.

For the compound `CCNC(=O)c1cc2c(-c3ccc(C(=O)N(CC#N)c4cccc(C(F)(F)F)c4)cc3Oc3c(C)cccc3C)cn(C)c(=O)c2[nH]1` [Example 171, 4-[4-{(cyanomethyl)[3-(trifluoromethyl)phenyl]carbamoyl}-2-(2,6-dimethylphenoxy)phenyl]-N-ethyl-6-methyl-7-oxo-6,7-dihydro-1H-pyrrolo[2,3-c]pyridine-2-carboxamide], the Ki is 0.0383 µM in test [1] and more than 12.7 µM in test [3]. For the same compound, the EC50 in test [2] was 6.41 µM.

With `CCNC(=O)c1cc2c(-c3ccc(C(=O)N(CC#N)CC(C)c4ccccc4)cc3Oc3c(C)cccc3C)cn(C)c(=O)c2[nH]1` (stereo not drawn) [Example 167, 4-{4-[(cyanomethyl)(2-phenylpropyl)carbamoyl]-2-(2,6-dimethylphenoxy)phenyl}-N-ethyl-6-methyl-7-oxo-6,7-dihydro-1H-pyrrolo[2,3-c]pyridine-2-carboxamide], the inhibitory constant (Ki) in test [1] is 0.0344 µM; in test [3], more than 12.7 µM. Moreover, in test [2], the EC50 worked out at 2.02 µM.

Regarding `CN1CCN(Cc2cc3c(-c4cc(S(C)(=O)=O)ccc4Oc4ccc(F)cc4F)cn(C)c(=O)c3[nH]2)C(c2ccccc2)C1` (stereo not drawn) [Example 188, 4-[2-(2,4-difluorophenoxy)-5-(methylsulfonyl)phenyl]-6-methyl-2-[(4-methyl-2-phenylpiperazin-1-yl)methyl]-1,6-dihydro-7H-pyrrolo[2,3-c]pyridin-7-one], the inhibition constant (Ki) in test [1] amounted to 0.151 µM; in test [3], 0.00156 µM. For the same compound, the EC50 in test [2] worked out at 0.0768 µM.

In the case of `CCNC(=O)c1cc2c(-c3ccc(C(=O)N(CC#N)c4cccc(Cl)c4)cc3Oc3c(C)cccc3C)cn(C)c(=O)c2[nH]1` [Example 168, 4-{4-[(3-chlorophenyl)(cyanomethyl)carbamoyl]-2-(2,6-dimethylphenoxy)phenyl}-N-ethyl-6-methyl-7-oxo-6,7-dihydro-1H-pyrrolo[2,3-c]pyridine-2-carboxamide], the Ki in test [1] was 0.0223 µM; in test [3], 2.31 µM. Besides, the EC50 in test [2] amounted to 3.06 µM.

For the compound `CCNC(=O)c1cc2c(-c3ccc(C(=O)N(CCN(C)C)c4ncccn4)cc3Oc3c(C)cccc3C)cn(C)c(=O)c2[nH]1` [Example 174, 4-[4-{[2-(dimethylamino)ethyl](pyrimidin-2-yl)carbamoyl}-2-(2,6-dimethylphenoxy)phenyl]-N-ethyl-6-methyl-7-oxo-6,7-dihydro-1H-pyrrolo[2,3-c]pyridine-2-carboxamide], the values for the inhibition constant (Ki) in test [1] and in test [3] were 0.0133 µM and 2.3 µM, respectively. Moreover, the EC50 in test [2] is 1.61 µM.

For the compound `CCNC(=O)c1cc2c(-c3ccc(C(=O)N(CC#N)c4ccccc4)cc3Oc3c(C)cccc3C)cn(C)c(=O)c2[nH]1` [Example 177, 4-{4-[(cyanomethyl)(phenyl)carbamoyl]-2-(2,6-dimethylphenoxy)phenyl}-N-ethyl-6-methyl-7-oxo-6,7-dihydro-1H-pyrrolo[2,3-c]pyridine-2-carboxamide], the Ki stood at 0.00921 µM in test [1] and 1.49 µM in test [3]. The EC50 in test [2] is 10 µM.
